Series [1] in a line: Permeability studies, Franz diffusion cells. The format is in vitro ADME. The following applies: pig. The method, then: Freshly collected buccal tissues were obtained from pig and mucosa's were isolated carefully. The prepared mucosa membranes with approximate size of 4 cm^2 were mounted between donor and receiver chambers of Franz diffusion cells with available diffusion area of 1.77 cm^2. Test treatments and controls were run in quadruplicate. The receiver compartment, which contained a stirring bar, was filled with 8 mL of KRB buffer, pH 7.4 containing 1% BSA. The Franz cells were placed in a heating/stirring block. The temperature was set at 37° C. in order to maintain the tissue surface temperature at 32° C.; the stirring rate was set at 400 rpm. Two milliliters of formulated compound at different pHs was added to the donor chambers, completely covering the exposed mucosa. All dosing solutions contained 0.1% of sodium dithionite, 0.2% DMSO and 5% propylene glycol or glycerin. The donor compartment was covered with Parafilm to minimize evaporation. An aliquot (˜0.5 mL) was taken from the receiver compartment at 2, 60, 90, and 120 min and replaced with an equal volume of buffer warmed at 37° C. Sampling time points from donor compartment were 0, 60, 90 and 120 min. Samples were diluted with 0.5 mL (1:1) of 10% aq. ascorbic acid. The concentration of each analyte was quantified by LC-MS/MS (Appendix I). The whole study was done in dark with yellow light, and glass vials and syringes were used for sampling. […] Cd final is the concentration of the donor at the end of the incubation period (interval), μM.

For series [2] the following is noted: cited from earlier work.
For series [3] the following is noted: subcutaneous injection, 0.5 mg/kg, literature value; cited from earlier work.

Counter-ions that a name gives are not always drawn.

The values that follow come from patent publication US9283219B2, “Sublingual films” (Cynapsus Therapeutics, Inc., priority 2010, dated 2016).

Take `CN1CCc2cccc3c2[C@H]1Cc1ccc(O)c(O)c1-3` [apomorphine]: the apparent permeability (Papp) (commonly the rate of passage across a membrane or cell layer, normalised by area and donor concentration) at 120 min in series [1] (pH 6.4, pH 6.4) was 0.071 ×10⁻⁶ cm/s; in series [1] (pH 6.8, pH 6.8), 0.054 ×10⁻⁶ cm/s; in series [1] (pH 7.4, pH 7.4), 0.185 ×10⁻⁶ cm/s; in series [1] (pH 8, pH 8.0) it was 0.556 ×10⁻⁶ cm/s; in series [1] (pH 8, pH 8.0 + 1% glycerin monostearate), 2.34 ×10⁻⁶ cm/s; in series [1] (pH 8, pH 8.0 + 1% magnesium stearate), 0.3 ×10⁻⁶ cm/s. For the same molecule, in series [1] (pH 8, pH 8.0 + 1% tocopherol acetate), the apparent permeability (Papp) at 120 min amounted to 0.98 ×10⁻⁶ cm/s. Also, in series [2] (intranasal administration), the “adverse effects of intranasal administration” value was “transient nasal blockage, burning sensation and swollen nose and lips”. The “side effect of subcutaneous injection” value in series [2] (subcutaneous injection) is recorded as “development of nodules, which often become infected”. The “adverse effects of sublingual tablets” value in series [2] (sublingual administration of tablets, prolonged use) is “severe stomatitis on prolonged use with buccal mucosal ulceration in half the patients”.
Regarding `CN1CCc2cccc3c2[C@H]1Cc1ccc(O)c(O)c1-3` [sc inj, apomorphine hydrochloride], in series [3], the AUCinf was 17828 ng·min/mL; the Cmax (as a rule, the peak of the concentration-time curve) was 331 ng/mL; the Tmax (in general, the time from dosing to the highest level) was 25 min.
